{"source": "patent US20040047885A1", "about": "“Use of compounds which make it possible to modify the physicochemical properties of the skin and/or the mucous membranes as agents preventing or reducing the adhesion of microorganisms to the latter” (priority 2000, published 2004)", "test_system": "Staphylococcus aureus", "type": "cell-based", "settings": "vs water", "protocol": "These compounds are chosen so that the decimal logarithm of the mean number of viable bacteria adhering to reconstructed epidermis, after a test consisting in bringing the said epidermis into contact with the test compound for 2 hours at 37° C., is at least 0.3 less than that obtained by a test carried out with water under the same conditions.\nThe reconstructed epidermis used in the test indicated above is reconstructed human epidermis, equivalent to human skin, sold by EPISKIN.\nThe antiadhesion test corresponds to the protocol below:\nBefore bacterial adhesion, the reconstructed epidermis is brought into contact for 2 hours with 25 mg of the product to be tested at 37° C. 1 ml of bacterial suspension of Staphylococcus aureus at a concentration of […] in Tryptone salt is then added thereto. After incubating for 24 hours at 37° C., the bacterial suspension is emptied and five rinsings are carried out with 1 ml of sterile distilled water. The epidermis, detached from its support, is then ground with the aid of a food processor in 18 ml of Tryptone salt. A decimal dilution is carried out on this suspension in Tryptone salt, and 1 ml of the dilution is then inoculated into 15 ml of Trypticase Soy agar and the medium is incubated for 24 hours at 37° C. The adherent and viable cells are then counted.\nThis antiadhesion test makes it possible to evaluate the efficacy of molecules alone or of finished products.\nThe figures presented opposite the compound correspond to the reduction of the decimal logarithm of the mean number of viable Staphylococcus aureus adhering to reconstructed epidermis after treatment with the compound under the conditions defined by the preceding test compared with the decimal logarithm of the mean number of viable Staphylococcus aureus adhering to reconstructed epidermis after treatment with water under the same conditions.", "key": {"[1]": {"settings": "reconstructed human epidermis (EPISKIN) contacted 2 hours at 37° C. with 25 mg product, then 24 hours with bacterial suspension"}}, "note": "Read-outs that look alike come from different tables or passages of the source.", "data": [{"molecule": "CCCCCCCCOC(=O)CCCCC(=O)OCCCCCCCC", "note": "[Dioctyl adipate]", "values": [{"measurement": "reduction of the decimal logarithm of the mean number of viable Staphylococcus aureus adhering to reconstructed epidermis compared with water", "setting": "[1]", "result": 0.90}]}, {"molecule": "Disodium cocoamphodiacetate", "values": [{"measurement": "reduction of the decimal logarithm of the mean number of viable Staphylococcus aureus adhering to reconstructed epidermis compared with water", "setting": "[1]", "result": 1.34}]}, {"molecule": "Ricinoleic monoethanolamide monosulphosuccinate salt", "values": [{"measurement": "reduction of the decimal logarithm of the mean number of viable Staphylococcus aureus adhering to reconstructed epidermis compared with water", "setting": "tested at 5% active substance, epidermis contacted 2 hours at 37° C.", "result": 3.84}]}, {"molecule": "Tartrate of branched C12-C13 dialcohols", "values": [{"measurement": "reduction of the decimal logarithm of the mean number of viable Staphylococcus aureus adhering to reconstructed epidermis compared with water", "setting": "[1]", "result": 2.31}]}]}
